# “Also recorded” adds a separate entry of the source.
# What was measured:
# B. improvisus [1] = assay: Larval bioassay: settlement and mortality of barnacle cyprids; type: in vivo, Balanus improvisus
# Procedure: (§1) The brood stock of adult barnacles (B. improvisus, Darwin 1854) were allowed to settle on plexiglass panels in the sea on a raft outside Tjärnö Marine Biological Laboratory (58° 53′ N, 11° 8′ E). Cleaned from epiphytes they were brought to the laboratory and immediately placed in trays with running seawater (salinity […]). When regularly fed, with nauplii of Artemia salina, B. improvisus will spawn throughout the year. For larval rearing we used the method according to Berntsson et al., described in “Reduction of barnacle recruitment on micro-textured surfaces: Analysis of effective topographic characteristics and evaluation of skin friction”, Biofouling 16, 245-261. The experiment for the evaluation of the effect on settlement and mortality was performed using polystyrene Petri dishes (Ø48 mm) to which 10 ml of the peptide dissolved to different concentrations in filtered seawater (0.2 μm, 32±1%) was added. Competent cyprids (20±2 ind.) were added to each dish in four replicates and dishes with filtered seawater served as controls. Dishes were maintained for 3-4 days in room temperature after which they were examined under a stereo microscope for attached and metamorphosed individuals and also, for dead cyprids.
# Results are reported as means±standard error and using 1-factor analysis of variance (ANOVA).
# B. improvisus [2] = assay: Reversibility test: cyprids moved to fresh seawater; type: in vivo, Balanus improvisus; settings: cyprids from 2.5 μM moved to fresh sea water; five days
# Procedure: as §1
# Half of the number of cyprids in each petri dish incubated at the highest tested concentration, 2.5 μM, were moved to a petri dish containing 10 ml of fresh seawater. […]
# Helicoverpa punctigera = settings: feeding trial, cited from earlier work
substance,measurement,setting,value
cyclo(VWIPCISSAIGCSCKSKVCYRNGIPCGESC) (head-to-tail cyclic) [cycloviolacin O2],settlement,"B. improvisus [1]; 0.0025 μM (lowest tested concentration), 3-4 days, control 67±3%",68±3%
same,settlement,"B. improvisus [1]; 0.025 μM, 3-4 days",21±0.5%
same,inhibition of settlement,"B. improvisus [1]; 0.25 μM, 3-4 days",complete inhibition of settlement; also recorded: complete inhibition of fouling
same,mortality compared to the control,"B. improvisus [1]; all tested concentrations up to 2.5 μM, control saltwater only",No one of the tested concentrations showed an increase in mortality; also recorded: No increase in mortality could be detected
same,mortality in reversibility test,B. improvisus [2],No increase in mortality was observed
"kalata B1: cyclotide with potent insecticidal activities reported by Jennings and coworkers (cyclo(GLPVCGETCVGGTCNTPGCTCSWPVCTRN); not fully specified (bridges); cysteine pairing not given here; UniProt P56254 89-117, looked up)",mortality of insect larvae,Helicoverpa punctigera; over time,increase in mortality over time
same,growth and development of the insect larvae,Helicoverpa punctigera,greatly affected

# From patent US8168747B2, “On-growth inhibiting compounds” (Viogard AB, priority 2002, dated 2012)
